Source: paper PMC9653795, “Structure-Guide Design and Optimization of Potential Druglikeness Inhibitors for TGFβRI with the Pyrrolopyrimidine Scaffold” (Pharmaceuticals, 2022)

Target: T1, TGFβRI (Homo sapiens, UniProt P36897)
T1 construct: gene TGFBR1
T1 sequence (P36897 34-503): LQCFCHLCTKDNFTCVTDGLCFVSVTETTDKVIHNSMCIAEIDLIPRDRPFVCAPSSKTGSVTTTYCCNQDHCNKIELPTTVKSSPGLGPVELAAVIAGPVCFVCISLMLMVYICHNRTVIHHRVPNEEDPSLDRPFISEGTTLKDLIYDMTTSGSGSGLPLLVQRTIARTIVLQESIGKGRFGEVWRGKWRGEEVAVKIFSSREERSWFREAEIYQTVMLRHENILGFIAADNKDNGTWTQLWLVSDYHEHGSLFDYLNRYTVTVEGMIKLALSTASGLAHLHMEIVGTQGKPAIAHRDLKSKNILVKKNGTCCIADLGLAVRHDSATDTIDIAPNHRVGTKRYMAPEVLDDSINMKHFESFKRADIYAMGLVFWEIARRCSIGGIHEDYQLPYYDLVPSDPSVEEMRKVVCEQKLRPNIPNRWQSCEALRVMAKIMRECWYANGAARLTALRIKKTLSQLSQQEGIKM
Experiment: ADP-Glo kinase assay
Type: biochemical

## CC(C)(O)CNc1nc(Nc2ccncc2F)nc(-c2cccc(C(F)(F)F)n2)n1 [W8, 1-((4-((3-Fluoropyridin-4-yl)Amino)-6-(6-(Trifluoromethyl)Pyridin-2-yl)-1,3,5-Triazin-2-yl)Amino)-2-Methylpropan-2-ol]
  IC50: 10.8 µM
